Assay results: US12167998B2, “Spiro-lactam NMDA receptor modulators and uses thereof” (Tenacia Biotechnology (Hong Kong) Co., Limited, priority 2013, dated 2024)
Where two headings read alike, the source gives them in different places. Each block holds one molecule with its values, some of them ahead of it.

Columns and labels:
[1] = tested on: hippocampal slices, Schaffer collateral-CA1; assay: Long term potentiation in hippocampal slices; assay type: cell-based, rat; conditions: for LTP: LTP Augmentation (%): Table 4
Experimental: Assays were conducted as described in Zhang et al. (Zhang, X. L., Sullivan, J. A., Moskal, J. R., Stanton, P. K., 2008. A NMDA receptor glycine site partial agonist, GLYX-13, simultaneously enhances LTP and reduces LTD at Schaffer collateral-CA1 synapses in hippocampus. Neuropharmacology. 55, 1238-50) Sprague-Dawley rats (12-18 days old; Taconic Farms) were deeply anesthetized with isoflurane and decapitated. Rat brains were removed rapidly, submerged in ice-cold artificial cerebrospinal fluid (ACSF, 2-4° C.), which contained (in mM): 124 NaCl, 4 KCl, 2 MgSO4, 2 CaCl2, 1.25 NaH2PO4, 26 NaHCO3, 10 glucose; at pH 7.4, gassed continuously with 95% O2/5% CO2). The rat brains were hemisected, the frontal lobes cut off, and individual hemispheres glued using cyanoacrylate adhesive onto a stage immersed in ice-cold ACSF gassed continuously with 95% O2/5% CO2 during slicing. Coronal slices (400 μm thick) were cut using a Vibratome (Leica VT1200S), and transferred to an interface holding chamber for incubation at room temperature for a minimum of one hour before transferring to a Haas-style interface recording chamber continuously perfused at 3 ml/min with oxygenated ACSF at 32±0.5° C. Low resistance recording electrodes were made from thin-walled borosilicate glass (1-2 MΩ after filling with ACSF) and inserted into the apical dendritic region of the Schaffer collateral termination field in stratum radiatum of field CA1 region to record field excitatory postsynaptic potentials (fEPSPs). A bipolar stainless steel stimulating electrode (FHC Co.) was placed on Schaffer collateral-commissural fibers in CA3 stratum radiatum, and constant current stimulus intensity adjusted to evoke approximately half-maximal fEPSPs once each 30 s ([…]; 100 μs duration). fEPSP slope was measured before and after induction of LTP by linear interpolation from 20 to 80% of maximum negative deflection, and slopes confirmed to be stable to within ±10% for at least 15 min before commencing an experiment. […] LTP was induced by stimulation of Schaffer collateral axons with four high frequency theta burst stimulus trains of 10×100 Hz/5 pulse bursts each, applied at an inter-burst interval of 200 ms. Each train was 2 seconds in duration, and trains were applied 15 seconds apart. The signals were recorded using a Multiclamp 700B amplifier and digitized with a Digidata 1322 (Axon Instruments, USA). Data were analyzed using pClamp software (version 9, Axon Instruments) on an IBM-compatible personal computer.

[2] = molecular target: NMDA receptor glycine site, rat cortical membranes (Rattus norvegicus (Rat), UniProt P35439); assay: [3H] MK-801 binding assay (potentiation of [3H]MK-801 binding)
Experimental: Assays were conducted as described in Moskal et al. (Moskal, J. R., Kuo, A. G., Weiss, C., Wood, P. L., O'Connor Hanson, A., Kelso, S., Harris, R. B., Disterhoft, J. F., 2005. GLYX-13: a monoclonal antibody-derived peptide that acts as an N-methyl-D-aspartate receptor modulator. Neuropharmacology. 49, 1077-87) The potentiation of [^3H]MK-801 binding (5 nM; 22.5 Ci/mmol) to well washed rat cortical membranes (200 μg) was measured under non-equilibrium conditions (15 min @ 25° C.) in the presence of increasing concentrations of test compounds and […]. Zero levels were determined in the absence of any glycine ligand and in the presence of 30 μM 5.7 DCKA. Maximal stimulation was measured in the presence of 1 mM glycine, and 500 μM glutamate was present in all samples. The facilitation of [^3H]MK-801 binding by tests compounds was calculated by using a 3 parameter log agonist vs. response equation (Graph pad Prism, USA) and potency (EC50, expressed in pM) and maximal activity (% maximal stimulation) were calculated for the test compound.

[3] = Porsolt test, floating time inhibition; assay type: in vivo; conditions: 1 hour post dose
[4] = Table 4, rat cortex, read-out: MK-801 Glycine Site Binding Assay: Rat Cortex EC50
[5] = Table 3, read-out: [3H] MK-801 binding assay: EC50

Structure (SMILES): CC1CCC2(CN([C@H](C(N)=O)[C@@H](C)O)C2=O)N1C(=O)OC(C)(C)C (stereo partly drawn) [Compound 2S-FNL-33, tert-butyl 2-((2S,3R)-1-amino-3-hydroxy-1-oxobutan-2-yl)-6-methyl-1-oxo-2,5-diazaspiro[3.4] octane-5-carboxylate]
LTP: LTP Augmentation (%) ([1]; LTP concentration 1 uM): 140% | EC50 [2, 4]: 18.9 nM

Structure (SMILES): CC1CCC2(CN([C@H](C(N)=O)[C@@H](C)O)C2=O)N1 (stereo partly drawn) [Compound 2S-FNL-34, (2S,3R)-3-hydroxy-2-(6-methyl-1-oxo-2,5-diazaspiro[3.4]octan-2-yl) butanamide]
Unified Activity Data: LTP Augmentation (Percent) ([1]; LTP concentration 0.1 uM): 100% | Unified Activity Data: Porsolt Floating Time Inhibition (Percent) ([3]; 1 mg/kg PO): 73%

Structure (SMILES): CC(=O)O[C@H](C)[C@@H](C(=O)N1CCCC1)N1CC2(CCCN2)C1=O (stereo partly drawn) [Compound 2S-FNL-27, (2R,3S)-4-oxo-3-(1-oxo-2,5-diazaspiro[3.4]octan-2-yl)-4-(pyrrolidin-1-yl) butan-2-yl acetate]
EC50 [2, 5]: 0.00349 nM

Structure (SMILES): CC(N)C(C(N)=O)N1CC2(CCCN2)C1=O (stereo not drawn) [Compound 2S-FNL-7, 3-amino-2-(1-oxo-2,5-diazaspiro[3.4]octan-2-yl)butanamide]
EC50 [2, 5]: 11 nM

Structure (SMILES): NC(=O)[C@H](CO)N1CC2(CCCN2)C1=O (stereo partly drawn) [Compound 2S-FNL-21, (2S)-3-hydroxy-2-(1-oxo-2,5-diazaspiro[3.4]octan-2-yl)propanamide]
Unified Activity Data: LTP Augmentation (Percent) ([1]; LTP concentration 0.1 uM): 80%

Structure (SMILES): C[C@@H](O)[C@@H](C(N)=O)N1CC2(CCCN2C(=O)OC(C)(C)C)C1=O (stereo partly drawn) [Compound 2S-FNL-2, tert-butyl 2-((2S,3R)-1-amino-3-hydroxy-1-oxobutan-2-yl)-1-oxo-2,5-diazaspiro[3,4] octane-5-carboxylate]
EC50 [2, 4]: 20 nM

Structure (SMILES): CC1CCC2(N1)C(=O)N([C@H](C(=O)N1CCCC1)[C@@H](C)O)C2C (stereo partly drawn) [Compound 2S-FNL-38, 2-((2S,3R)-3-hydroxy-1-oxo-1-(pyrrolidin-1-yl)butan-2-yl)-3,6-dimethyl-2,5-diazaspiro[3.4]octan-1-one]
EC50 [2, 4]: 3.31 nM

Continued, in another order:

Emax ([2]; maximal stimulation measured with 1 mM glycine): 38% | pEC50 ([2]; rat cortical membranes, 50 μM glutamate): 7.4 | EC50 ([2]; rat cortical membranes, 50 μM glutamate, read-out: pEC50 (converted)): 39.8 nM
Structure (SMILES): C[C@@H](O)[C@@H](C(N)=O)N1CC2(CCCN2)C1=O (stereo partly drawn) [Compound X, (2S,3R)-3-hydroxy-2-(1-oxo-2,5-diazaspiro[3,4]octan-2-yl)butanamide]
long-term potentiation after high frequency stimulation of Schaffer collateral-evoked NMDA e.p.s.c.s in CA1 pyramidal neurons ([1]; tested at 1 μM, FIG. 2): increased long-term potentiation

EC50 [2, 4]: 0.00119 nM
Structure (SMILES): C[C@@H](O)[C@@H](C(=O)NCc1ccccc1)N1CC2(CCCN2C(=O)OC(C)(C)C)C1=O (stereo partly drawn) [Compound 2S-FNL-10, tert-butyl 2-((2S,3R)-1-(benzylamino)-3-hydroxy-1-oxobutan-2-yl)-1-oxo-2,5-diazaspiro[3.4] octane-5-carboxylate]
LTP: LTP Augmentation (%) ([1]; LTP concentration 1 uM): 90%

EC50 [2, 4]: 0.0613 nM
Structure (SMILES): C[C@@H](O)[C@@H](C(=O)NCc1ncno1)N1CC2(CCCN2C(=O)OC(C)(C)C)C1=O (stereo partly drawn) [Compound 2S-FNL-14, tert-butyl 2-((2S,3R)-1-(((1,2,4-oxadiazol-5-yl)methyl)amino)-3-hydroxy-1-oxobutan-2-yl)-1-oxo-2,5-diazaspiro[3.4] octane-5-carboxylate]
LTP: LTP Augmentation (%) ([1]; LTP concentration 1 uM): 120%

EC50 [2, 5]: 54.3 nM
Structure (SMILES): C[C@@H](O)[C@@H](C(N)=O)N1CC2(CCCN2)C1=O (stereo partly drawn) [Compound 2S-FNL-3, (2S,3R)-3-hydroxy-2-(1-oxo-2,5-diazaspiro[3.4]octan-2-yl) butanamide]
Unified Activity Data: LTP Augmentation (Percent) ([1]; LTP concentration 1 uM): 130% | Unified Activity Data: Porsolt Floating Time Inhibition (Percent) ([3]; 3 mg/kg IV): 80%
